Results as given in ChEMBL document CHEMBL1152653, “5-Nitrofuranes and 5-nitrothiophenes with anti-Trypanosoma cruzi activity and ability to accumulate squalene” (Bioorg Med Chem, 2009).
Converted amounts (≈) assume the structure as drawn.

Legend:
Trypanosoma cruzi [1] = test: Increase in squalene biosynthesis in Trypanosoma cruzi tulahuen 2 epimastigotes at ID50 concentration per 8 x 10^6 cells/ml after 120 mins by HPLC analysis (Rvb=0.6 to 2.1 ug/ml); type: functional
Trypanosoma cruzi [2] = test: Antitrypanosomal activity against Trypanosoma cruzi tulahuen 2 after 5 days; type: functional; settings: tulahuen 2, 120 h, read-out: ID50 (the source's name)
[3] = Cytotoxicity against mouse J774 cells after 48 hrs by MTT assay; type: cell-based; settings: read-out: ID50
[4] = Selectivity index, ratio of IC50 for mouse J774 cells to ID50 for Trypanosoma cruzi tulahuen 2; type: toxicity, cell-based; settings: J774 cells versus Trypanosoma cruzi Tulahuen 2, read-out: Selectivity Index
Aspergillus fumigatus = test: Antifungal activity against Aspergillus fumigatus ATCC 26934 after 48 hrs by broth microdilution technique; type: functional; settings: ATCC 26934, 48 h
Saccharomyces cerevisiae = test: Antifungal activity against Saccharomyces cerevisiae ATCC 9763 after 48 hrs by broth microdilution technique; type: functional; settings: ATCC 9763, 48 h
Nannizzia gypsea = test: Antifungal activity against Microsporum gypseum C 115 after 48 hrs by broth microdilution technique; type: functional; settings: C 115, 48 h
[5] = system: Trichophyton mentagrophytes; test: Antifungal activity against Trichophyton mentagrophytes ATCC 9972 after 48 hrs by broth microdilution technique; type: functional; settings: ATCC 9972, 48 h
Candida albicans = test: Antifungal activity against Candida albicans ATCC 10231 after 48 hrs by broth microdilution technique; type: functional; settings: ATCC 10231, 48 h
Aspergillus flavus = test: Antifungal activity against Aspergillus flavus ATCC 9170 after 48 hrs by broth microdilution technique; type: functional; settings: ATCC 9170, 48 h
Trypanosoma cruzi [6] = test: Decrease in ergosterol biosynthesis in Trypanosoma cruzi tulahuen 2 epimastigotes at ID50 concentration per 8 x 10^6 cells/ml after 120 mins by HPLC analysis (Rvb=6.8 +/- 0.5 ug/ml); type: functional
Trichophyton rubrum = test: Antifungal activity against Trichophyton rubrum C113 after 48 hrs by broth microdilution technique; type: functional; settings: C113, 48 h
Candida tropicalis = test: Antifungal activity against Candida tropicalis C131-2000 after 48 hrs by broth microdilution technique; type: functional; settings: C131-2000, 48 h
Cryptococcus neoformans = test: Antifungal activity against Cryptococcus neoformans ATCC 32264 after 48 hrs by broth microdilution technique; type: functional; settings: ATCC 32264, 48 h
Aspergillus niger = test: Antifungal activity against Aspergillus niger ATCC 9029 after 48 hrs by broth microdilution technique; type: functional; settings: ATCC 9029, 48 h
Trypanosoma cruzi [7] = test: Antitrypanosomal activity against Trypanosoma cruzi CL Brener after 5 days; type: functional; settings: 120 h, read-out: ID50 (the source's name)
Trypanosoma cruzi [8] = test: Ratio of ID50 for drug to ID50 for nifurtimox against Trypanosoma cruzi tulahuen 2 after 5 days; type: functional

Row | Structure (SMILES) | IC50 (Trypanosoma cruzi [2]) [µM] | IC50 (Trypanosoma cruzi [7]) [µM] | Activity (Trypanosoma cruzi [1]) [µg/mL] | CC50 at 48 h [3] [µM] | selectivity ratio [4] | MIC (Aspergillus fumigatus) [µg/mL] | MIC (Saccharomyces cerevisiae) [µg/mL] | MIC (Nannizzia gypsea) [µg/mL] | MIC [5] [µg/mL] | MIC (Candida albicans) [µg/mL] | MIC (Aspergillus flavus) [µg/mL] | Activity (Trypanosoma cruzi [6]) [µg/mL] | MIC (Trichophyton rubrum) [µg/mL] | MIC (Candida tropicalis) [µg/mL] | MIC (Cryptococcus neoformans) [µg/mL] | MIC (Aspergillus niger) [µg/mL] | Ratio (Trypanosoma cruzi [8])
1 | CC1CS(=O)(=O)CCN1/N=C/c1ccc([N+](=O)[O-])o1 (configuration not stated) [NIFURTIMOX] |  |  | 0.6 | 316 | 41 |  |  |  |  |  |  |  |  |  |  |  | 
2 | CN(C/C=C/C#CC(C)(C)C)Cc1cccc2ccccc12 [TERBINAFINE] |  |  | 12 | 339 | 19.9 | 0.5 (≈ 1.72 µM) | 0.5 (≈ 1.72 µM) | 0.125 (≈ 0.429 µM) | 0.075 (≈ 0.257 µM) | 0.78 (≈ 2.68 µM) | 0.5 (≈ 1.72 µM) | 2.7 | 0.075 (≈ 0.257 µM) | 1.56 (≈ 5.35 µM) | 0.25 (≈ 0.858 µM) | 0.5 (≈ 1.72 µM) | 
3 | C[C@@H]1[C@H](O)[C@@H](C)/C=C/C=C/C=C/C=C/C=C/C=C/C=C/[C@H](O[C@@H]2O[C@H](C)[C@@H](O)[C@H](N)[C@@H]2O)C[C@@H]2O[C@](O)(C[C@@H](O)C[C@@H](O)[C@H](O)CC[C@@H](O)C[C@@H](O)CC(=O)O[C@H]1C)C[C@H](O)[C@H]2C(=O)O [AMPHOTERICIN B] |  |  |  |  |  | 0.5 (≈ 0.541 µM) | 0.5 (≈ 0.541 µM) | 0.05 (≈ 0.0541 µM) | 0.025 (≈ 0.0271 µM) | 0.5 (≈ 0.541 µM) | 0.25 (≈ 0.271 µM) |  | 0.025 (≈ 0.0271 µM) | 0.5 (≈ 0.541 µM) | 0.25 (≈ 0.271 µM) | 0.125 (≈ 0.135 µM) | 
4 | CC(=O)N1CCN(c2ccc(OCC3COC(Cn4ccnc4)(c4ccc(Cl)cc4Cl)O3)cc2)CC1 (configuration not stated) [KETOCONAZOLE] |  |  |  | < 100 | < 10 | 0.78 (≈ 1.47 µM) | 3.12 (≈ 5.87 µM) | 0.04 (≈ 0.0753 µM) | 0.025 (≈ 0.047 µM) | 1.56 (≈ 2.94 µM) | 1.56 (≈ 2.94 µM) |  | 0.01 (≈ 0.0188 µM) | 1.56 (≈ 2.94 µM) | 0.39 (≈ 0.734 µM) | 0.78 (≈ 1.47 µM) | 

Second part, led by results:

Row | IC50 (Trypanosoma cruzi [2]) [µM] | IC50 (Trypanosoma cruzi [7]) [µM] | Structure (SMILES) | Activity (Trypanosoma cruzi [1]) [µg/mL] | CC50 at 48 h [3] [µM] | selectivity ratio [4] | MIC (Aspergillus fumigatus) [µg/mL] | MIC (Saccharomyces cerevisiae) [µg/mL] | MIC (Nannizzia gypsea) [µg/mL] | MIC [5] [µg/mL] | MIC (Candida albicans) [µg/mL] | MIC (Aspergillus flavus) [µg/mL] | Activity (Trypanosoma cruzi [6]) [µg/mL] | MIC (Trichophyton rubrum) [µg/mL] | MIC (Candida tropicalis) [µg/mL] | MIC (Cryptococcus neoformans) [µg/mL] | MIC (Aspergillus niger) [µg/mL] | Ratio (Trypanosoma cruzi [8])
5 | > 25 |  | O=C(/C=C/c1ccco1)N1CCN(C/C=C/c2ccccc2)CC1 | 0.6 |  |  |  |  |  |  |  |  |  |  |  |  |  | 
6 | 8.2 | 6.4 | C=CCNC(=S)N/N=C/C=C/c1ccc([N+](=O)[O-])o1 | 15.9 | 200 | 24.4 | > 250 | > 250 | > 250 | > 250 | > 250 | > 250 | 5.5 | > 250 | > 250 | > 250 | > 250 | 
7 | 1 |  | O=C(/C=C/c1ccc([N+](=O)[O-])o1)N1CCN(C/C=C/c2ccccc2)CC1 | 0.6 |  |  |  |  |  |  |  |  |  |  |  |  |  | 7
8 | 5 |  | O=C(/C=C/c1ccc([N+](=O)[O-])o1)NCCO | 0.6 |  |  |  |  |  |  |  |  |  |  |  |  |  | 
